Six compounds from patent US7074789B2, “Kinase inhibitors” (Amgen Inc., priority 1999, dated 2006) can be followed below.

Common to all, as to format: biochemical
In one test the target is T1, c-Met (Homo sapiens, UniProt P08581).
T1 construct: Kinases are expressed as either kinase domains or full length constructs; made in house
Nature of the test: Kinase inhibition assay (33P transfer), c-Met. The conditions noted are these: Table 2, kinase inhibition class; read-out: Met-1. In a few lines:
(§1)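 Radiometric format: recombinant tagged kinase (catalytic domain or whole protein, sometimes combined with regulatory polypeptides) phosphorylates immobilised poly(Glu,Tyr) 4:1 or poly(Arg,Ser) 3:1 using [33P]ATP. Wells are washed in 0.5% phosphoric acid, then counted. IC50 is taken where substrate labelling falls by half.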

The next test addresses T2, PDGFRB (Homo sapiens, UniProt P09619).
T2 construct: Kinases are expressed as either kinase domains or full length constructs; made in house
Nature of the test: Kinase inhibition assay (33P transfer), PDGFRB. The conditions noted are these: read-out: PDGFRB-1.

In the next test the target is T3, Src (Homo sapiens, UniProt P12931).
T3 construct: Kinases are expressed as either kinase domains or full length constructs; made in house
T3 sequence (P12931 whole entry, species assumed, the tested form may be a part): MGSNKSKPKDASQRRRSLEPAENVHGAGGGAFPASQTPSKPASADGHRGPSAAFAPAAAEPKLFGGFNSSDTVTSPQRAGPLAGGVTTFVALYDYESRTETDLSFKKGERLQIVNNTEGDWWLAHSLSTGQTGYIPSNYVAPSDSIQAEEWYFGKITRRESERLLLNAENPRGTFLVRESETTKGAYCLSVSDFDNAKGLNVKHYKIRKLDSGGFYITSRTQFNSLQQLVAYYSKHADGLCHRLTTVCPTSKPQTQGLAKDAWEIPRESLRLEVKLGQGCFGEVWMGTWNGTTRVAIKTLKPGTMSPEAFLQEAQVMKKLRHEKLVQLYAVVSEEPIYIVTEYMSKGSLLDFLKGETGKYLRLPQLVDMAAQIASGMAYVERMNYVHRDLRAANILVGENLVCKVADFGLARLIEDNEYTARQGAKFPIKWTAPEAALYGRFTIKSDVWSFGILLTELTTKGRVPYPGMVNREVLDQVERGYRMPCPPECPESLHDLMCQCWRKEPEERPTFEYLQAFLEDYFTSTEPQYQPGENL
Nature of the test: Kinase inhibition assay (33P transfer), Src. The conditions noted are these: Table 6, Src-1 kinase inhibition class. In a few lines: as §1

Another test addresses T4, ErbB4 (Homo sapiens, UniProt Q15303).
T4 construct: Kinases are expressed as either kinase domains or full length constructs; made in house
Kind of test: Kinase inhibition assay (33P transfer), ErbB4. The conditions noted are these: read-out: ErbB4-1.

For another test, the target named is T5, EPHB4 (Homo sapiens, UniProt P54760).
T5 construct: Kinases are expressed as either kinase domains or full length constructs; made in house
T5 sequence (P54760 16-987): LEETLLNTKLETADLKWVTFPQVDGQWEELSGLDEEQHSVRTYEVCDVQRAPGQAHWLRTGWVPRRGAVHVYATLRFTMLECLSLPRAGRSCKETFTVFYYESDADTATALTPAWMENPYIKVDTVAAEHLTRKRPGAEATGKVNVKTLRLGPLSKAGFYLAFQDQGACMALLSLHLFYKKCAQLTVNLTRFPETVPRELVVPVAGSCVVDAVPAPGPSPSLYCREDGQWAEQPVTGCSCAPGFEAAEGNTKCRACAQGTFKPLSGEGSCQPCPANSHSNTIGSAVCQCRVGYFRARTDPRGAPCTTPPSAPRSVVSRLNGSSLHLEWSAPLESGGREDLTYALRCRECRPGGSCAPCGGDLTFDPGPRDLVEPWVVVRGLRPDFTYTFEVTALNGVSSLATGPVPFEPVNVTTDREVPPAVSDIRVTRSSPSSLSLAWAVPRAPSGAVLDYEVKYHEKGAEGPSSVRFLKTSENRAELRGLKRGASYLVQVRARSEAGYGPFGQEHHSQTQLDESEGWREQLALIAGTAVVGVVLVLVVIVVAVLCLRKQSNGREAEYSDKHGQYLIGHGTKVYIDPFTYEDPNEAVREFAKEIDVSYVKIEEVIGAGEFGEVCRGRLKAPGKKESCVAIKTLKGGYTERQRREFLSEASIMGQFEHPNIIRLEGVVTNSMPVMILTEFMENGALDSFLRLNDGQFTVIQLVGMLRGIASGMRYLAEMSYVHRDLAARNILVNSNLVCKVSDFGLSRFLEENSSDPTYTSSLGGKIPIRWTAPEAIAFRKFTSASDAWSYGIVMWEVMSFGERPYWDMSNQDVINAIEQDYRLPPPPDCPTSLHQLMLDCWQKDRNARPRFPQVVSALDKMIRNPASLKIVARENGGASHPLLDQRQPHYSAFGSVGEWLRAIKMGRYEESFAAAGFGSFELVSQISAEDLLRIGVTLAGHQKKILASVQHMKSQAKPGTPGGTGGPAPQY
Nature of the test: Kinase inhibition assay (33P transfer), EPHB4. The conditions noted are these: read-out: EPHB4-1.

For another test, the target named is T6, Lyn (Homo sapiens, UniProt P07948).
T6 construct: Kinases are expressed as either kinase domains or full length constructs; made in house
T6 sequence (P07948 whole entry, species assumed, the tested form may be a part): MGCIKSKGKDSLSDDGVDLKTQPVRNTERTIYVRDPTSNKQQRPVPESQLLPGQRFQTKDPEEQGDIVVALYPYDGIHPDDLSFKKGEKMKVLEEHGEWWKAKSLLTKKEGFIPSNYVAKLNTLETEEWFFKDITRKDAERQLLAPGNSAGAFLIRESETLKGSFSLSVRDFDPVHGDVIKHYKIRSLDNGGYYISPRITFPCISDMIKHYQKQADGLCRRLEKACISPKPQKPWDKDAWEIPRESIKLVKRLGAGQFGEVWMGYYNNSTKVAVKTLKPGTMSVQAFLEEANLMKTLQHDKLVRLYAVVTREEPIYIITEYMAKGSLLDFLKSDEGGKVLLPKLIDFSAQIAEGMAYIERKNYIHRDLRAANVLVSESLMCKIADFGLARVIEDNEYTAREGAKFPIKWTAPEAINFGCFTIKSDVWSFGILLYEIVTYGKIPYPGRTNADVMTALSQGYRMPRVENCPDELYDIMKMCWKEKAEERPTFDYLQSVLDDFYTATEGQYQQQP
Kind of test: Kinase inhibition assay (33P transfer), Lyn. The conditions noted are these: Table 6, Lyn-1 kinase inhibition class. Put shortly: as §1

In a further test the target is T7, Tek (Homo sapiens, UniProt Q02763).
T7 construct: Kinases are expressed as either kinase domains or full length constructs; made in house
Nature of the test: Kinase inhibition assay (33P transfer), Tek. The conditions noted are these: read-out: Tek-1. In a few lines: as §1

For the next test, the target named is T8, Flt-1 (Homo sapiens, UniProt P17948).
T8 construct: Kinases are expressed as either kinase domains or full length constructs; made in house
Kind of test: Kinase inhibition assay (33P transfer), Flt-1. In a few lines: as §1

The target of another test is T9, FGFR1 (Homo sapiens, UniProt P11362).
T9 construct: Kinases are expressed as either kinase domains or full length constructs; made in house
Nature of the test: Kinase inhibition assay (33P transfer), FGFR1. The conditions noted are these: read-out: FGFR1-1.

In a further test the target is T10, EGFR (Homo sapiens, UniProt P00533).
T10 construct: Kinases are expressed as either kinase domains or full length constructs; made in house
Kind of test: Kinase inhibition assay (33P transfer), EGFR. The conditions noted are these: Table 2, kinase inhibition class; read-out: EGFR-1. Put shortly: as §1

In another test the target is T11, Lck (Homo sapiens, UniProt P06239).
T11 construct: Kinases are expressed as either kinase domains or full length constructs; made in house
Kind of test: Kinase inhibition assay (33P transfer), Lck. The conditions noted are these: Table 3; read-out: Lck-1. In a few lines:
(§2)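 Kinase domain or full-length constructs, GST- or polyHis-tagged, expressed in E. coli or baculovirus-High Five cells, sometimes with regulatory polypeptides. Activity measured as 33PO4 transfer from ATP to plate-bound poly(Glu,Tyr) 4:1 or poly(Arg,Ser) 3:1; after incubation, plates washed with 0.5% phosphoric acid and counted by liquid scintillation.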

The target of a further test is T12, Fyn (Homo sapiens, UniProt P06241).
T12 construct: Kinases are expressed as either kinase domains or full length constructs; made in house
T12 sequence (P06241 whole entry, species assumed, the tested form may be a part): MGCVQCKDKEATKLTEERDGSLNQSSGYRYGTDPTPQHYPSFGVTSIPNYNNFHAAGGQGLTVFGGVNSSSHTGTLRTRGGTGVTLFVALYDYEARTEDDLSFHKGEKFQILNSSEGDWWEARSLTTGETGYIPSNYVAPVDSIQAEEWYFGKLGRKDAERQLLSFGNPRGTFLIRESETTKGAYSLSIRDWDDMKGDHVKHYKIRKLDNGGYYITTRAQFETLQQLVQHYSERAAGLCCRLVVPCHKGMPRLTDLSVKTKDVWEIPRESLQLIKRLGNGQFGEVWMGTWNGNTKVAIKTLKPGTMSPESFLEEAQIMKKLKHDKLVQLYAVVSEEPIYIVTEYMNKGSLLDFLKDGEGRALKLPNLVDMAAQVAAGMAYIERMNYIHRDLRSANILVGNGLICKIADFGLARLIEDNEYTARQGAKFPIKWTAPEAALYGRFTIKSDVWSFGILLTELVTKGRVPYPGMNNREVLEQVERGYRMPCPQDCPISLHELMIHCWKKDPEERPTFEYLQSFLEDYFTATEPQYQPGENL
Nature of the test: Kinase inhibition assay (33P transfer), Fyn. The conditions noted are these: read-out: Fyn-1. In a few lines:
as §1

The next test addresses T13, Hck-1 (Homo sapiens, UniProt P08631).
T13 construct: Kinases are expressed as either kinase domains or full length constructs; made in house
Kind of test: Kinase inhibition assay (33P transfer), Hck. The conditions noted are these: Table 6, Hck-1 kinase inhibition class.

The next test addresses T14, AKT (Homo sapiens, UniProt Q9Y243).
T14 construct: Kinases are expressed as either kinase domains or full length constructs; made in house
Kind of test: Kinase inhibition assay (33P transfer), AKT. The conditions noted are these: Table 2, kinase inhibition class; read-out: AKT3-1. In a few lines: as §2

The target in another test is T15, IGFR-1 (Homo sapiens, UniProt P08069).
T15 construct: Kinases are expressed as either kinase domains or full length constructs; made in house
Kind of test: Kinase inhibition assay (33P transfer), IGFR-1. The conditions noted are these: Table 2, kinase inhibition class.

T1 sequence (P08581 25-1390): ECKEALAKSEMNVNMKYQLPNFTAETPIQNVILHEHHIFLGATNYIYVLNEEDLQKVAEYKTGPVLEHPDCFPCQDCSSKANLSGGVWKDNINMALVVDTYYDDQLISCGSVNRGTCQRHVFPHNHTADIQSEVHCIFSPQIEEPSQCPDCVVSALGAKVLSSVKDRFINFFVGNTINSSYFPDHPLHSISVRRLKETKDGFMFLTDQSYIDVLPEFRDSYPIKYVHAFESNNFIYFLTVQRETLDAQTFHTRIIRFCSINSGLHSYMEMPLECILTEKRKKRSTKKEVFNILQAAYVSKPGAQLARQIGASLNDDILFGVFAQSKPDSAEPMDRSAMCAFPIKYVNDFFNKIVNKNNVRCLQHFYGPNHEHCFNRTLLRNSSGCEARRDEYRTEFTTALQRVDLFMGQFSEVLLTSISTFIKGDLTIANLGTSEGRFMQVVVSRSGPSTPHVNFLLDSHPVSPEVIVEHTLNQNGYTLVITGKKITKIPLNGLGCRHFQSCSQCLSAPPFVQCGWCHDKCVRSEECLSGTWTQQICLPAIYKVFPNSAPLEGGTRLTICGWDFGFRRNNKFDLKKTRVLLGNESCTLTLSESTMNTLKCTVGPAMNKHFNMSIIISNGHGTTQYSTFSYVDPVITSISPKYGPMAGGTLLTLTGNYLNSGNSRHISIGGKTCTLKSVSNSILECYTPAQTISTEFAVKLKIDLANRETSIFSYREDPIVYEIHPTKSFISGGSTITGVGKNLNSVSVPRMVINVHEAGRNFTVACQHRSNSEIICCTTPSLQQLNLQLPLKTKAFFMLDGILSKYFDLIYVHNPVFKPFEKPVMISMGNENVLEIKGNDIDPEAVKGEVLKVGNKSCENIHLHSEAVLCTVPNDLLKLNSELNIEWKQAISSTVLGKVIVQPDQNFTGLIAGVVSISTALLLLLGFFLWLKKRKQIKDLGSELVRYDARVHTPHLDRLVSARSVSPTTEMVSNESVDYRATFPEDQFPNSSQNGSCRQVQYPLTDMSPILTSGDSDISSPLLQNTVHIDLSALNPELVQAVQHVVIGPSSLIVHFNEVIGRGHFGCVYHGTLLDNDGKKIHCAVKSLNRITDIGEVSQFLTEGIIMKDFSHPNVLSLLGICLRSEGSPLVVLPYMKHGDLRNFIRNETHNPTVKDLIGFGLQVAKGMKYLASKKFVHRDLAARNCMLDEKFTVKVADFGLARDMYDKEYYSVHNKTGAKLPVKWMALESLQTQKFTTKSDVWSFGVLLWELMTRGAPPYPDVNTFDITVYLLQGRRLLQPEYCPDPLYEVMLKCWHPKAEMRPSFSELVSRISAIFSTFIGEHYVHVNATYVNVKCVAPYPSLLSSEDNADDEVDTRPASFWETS
T13 sequence (P08631 whole entry, the tested form may be a part): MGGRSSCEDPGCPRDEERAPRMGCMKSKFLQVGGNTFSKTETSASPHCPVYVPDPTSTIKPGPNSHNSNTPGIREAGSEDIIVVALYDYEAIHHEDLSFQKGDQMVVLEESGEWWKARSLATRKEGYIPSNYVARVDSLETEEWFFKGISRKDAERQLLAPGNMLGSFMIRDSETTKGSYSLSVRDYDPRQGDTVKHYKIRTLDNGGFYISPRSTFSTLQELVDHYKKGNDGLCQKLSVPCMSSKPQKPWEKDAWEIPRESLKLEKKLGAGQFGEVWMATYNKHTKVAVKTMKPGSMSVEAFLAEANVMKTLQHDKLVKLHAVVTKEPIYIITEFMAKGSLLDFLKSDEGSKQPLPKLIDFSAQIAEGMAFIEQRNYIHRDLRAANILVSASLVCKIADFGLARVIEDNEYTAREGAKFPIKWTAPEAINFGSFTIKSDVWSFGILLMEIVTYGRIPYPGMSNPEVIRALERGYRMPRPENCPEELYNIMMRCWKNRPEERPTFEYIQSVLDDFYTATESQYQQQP
T4 sequence (Q15303 26-1308, species assumed): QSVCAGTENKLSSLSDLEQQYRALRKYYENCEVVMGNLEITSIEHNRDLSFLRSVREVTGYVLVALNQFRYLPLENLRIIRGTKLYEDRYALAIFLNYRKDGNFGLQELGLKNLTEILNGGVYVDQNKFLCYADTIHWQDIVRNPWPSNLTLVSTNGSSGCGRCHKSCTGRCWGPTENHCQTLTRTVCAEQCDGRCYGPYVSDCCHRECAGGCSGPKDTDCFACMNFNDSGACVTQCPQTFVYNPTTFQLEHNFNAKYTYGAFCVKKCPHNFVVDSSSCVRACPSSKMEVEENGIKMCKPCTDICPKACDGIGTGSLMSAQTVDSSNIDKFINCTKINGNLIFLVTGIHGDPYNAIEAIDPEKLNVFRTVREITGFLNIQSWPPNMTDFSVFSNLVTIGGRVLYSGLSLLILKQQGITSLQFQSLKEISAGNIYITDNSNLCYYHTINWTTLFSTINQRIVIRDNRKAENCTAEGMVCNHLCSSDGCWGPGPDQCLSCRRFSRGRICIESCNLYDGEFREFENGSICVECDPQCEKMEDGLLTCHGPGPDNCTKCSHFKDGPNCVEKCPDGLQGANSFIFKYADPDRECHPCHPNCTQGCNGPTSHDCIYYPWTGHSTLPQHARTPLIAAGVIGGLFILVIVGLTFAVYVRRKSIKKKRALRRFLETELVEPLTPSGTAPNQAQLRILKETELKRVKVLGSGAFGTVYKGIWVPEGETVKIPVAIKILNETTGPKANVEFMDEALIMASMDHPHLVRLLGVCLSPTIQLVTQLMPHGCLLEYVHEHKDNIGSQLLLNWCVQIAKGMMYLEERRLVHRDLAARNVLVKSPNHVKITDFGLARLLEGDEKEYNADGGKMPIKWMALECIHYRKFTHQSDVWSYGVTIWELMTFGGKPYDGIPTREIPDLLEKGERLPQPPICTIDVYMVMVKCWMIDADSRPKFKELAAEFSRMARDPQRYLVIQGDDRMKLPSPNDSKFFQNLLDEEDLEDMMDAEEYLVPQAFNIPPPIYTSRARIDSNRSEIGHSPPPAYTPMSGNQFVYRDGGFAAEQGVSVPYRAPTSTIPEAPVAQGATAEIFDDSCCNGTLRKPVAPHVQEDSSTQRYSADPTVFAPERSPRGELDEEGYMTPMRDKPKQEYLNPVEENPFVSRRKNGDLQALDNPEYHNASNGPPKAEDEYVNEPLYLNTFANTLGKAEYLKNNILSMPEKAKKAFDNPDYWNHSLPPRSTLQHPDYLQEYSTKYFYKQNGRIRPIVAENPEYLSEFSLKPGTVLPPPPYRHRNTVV

For the compound `COc1cc(Nc2ncnc(Nc3cc(-c4ccco4)n[nH]3)n2)cc(OC)c1` [Compound 365], the IC50 is less than 1.05 µM on c-Met; 6.33 to 9.23 µM on PDGFRB; 1.05 to 6.33 µM at Src; 6.33 to 9.23 µM on ErbB4; 1.05 to 6.33 µM at EPHB4; less than 1.05 µM at Lyn. The IC50 on Tek is greater than 11.9 µM; on Flt-1 it was 1.05 to 6.33 µM; at FGFR1 it was 1.05 to 6.33 µM; at EGFR it was 1.05 to 6.33 µM; at Lck it was 1.05 to 6.33 µM; on Fyn it was 1.05 to 6.33 µM. Further, the IC50 on Hck-1 was greater than 11.9 µM; on AKT, 6.33 to 9.23 µM; at IGFR-1, less than 1.05 µM.
For the compound `NC(=O)c1ccc(Nc2ncnc(Nc3cc(-c4ccco4)n[nH]3)n2)cc1` [Compound 341], the IC50 at c-Met was 1.1 to 6.62 µM; on PDGFRB, less than 1.1 µM; at Src, greater than 12.4 µM; at ErbB4, greater than 12.4 µM; on EPHB4, 1.1 to 6.62 µM; on Lyn, greater than 12.4 µM. The IC50 at Tek was greater than 12.4 µM; against Flt-1, less than 1.1 µM; at FGFR1 it was less than 1.1 µM; on EGFR it was 6.62 to 9.66 µM; at Lck, 6.62 to 9.66 µM; at Fyn it was greater than 12.4 µM. In addition, the IC50 at Hck-1 is greater than 12.4 µM; at AKT, greater than 12.4 µM; against IGFR-1 it was 1.1 to 6.62 µM.
In the case of `COc1cc(Nc2ncnc(Nc3cc(OC)c(OC)c(OC)c3)n2)cc(OC)c1` [Compound 86], the IC50 on c-Met was greater than 10.9 µM; at PDGFRB it was 0.968 to 5.81 µM; at Src it was 0.968 to 5.81 µM; at ErbB4, 0.968 to 5.81 µM; on EPHB4, greater than 10.9 µM; against Lyn, greater than 10.9 µM. The IC50 at Tek was greater than 10.9 µM; on Flt-1 it was greater than 10.9 µM; on FGFR1, greater than 10.9 µM; at EGFR, greater than 10.9 µM; on Lck it was 0.968 to 5.81 µM; on Fyn it was 8.47 to 10.9 µM. Also, the IC50 is greater than 10.9 µM on Hck-1, greater than 10.9 µM on AKT and less than 0.968 µM against IGFR-1.
For `COc1cc(Nc2ncnc(Nc3cccc(Br)c3)n2)cc(OC)c1OC` [Compound 75], the IC50 on c-Met was 8.1 to 10.4 µM; on PDGFRB, greater than 10.4 µM; at Src, 0.925 to 5.55 µM; on ErbB4, greater than 10.4 µM; on EPHB4, less than 0.925 µM; at Lyn, less than 0.925 µM. The IC50 at Tek is greater than 10.4 µM; on Flt-1, greater than 10.4 µM; at FGFR1, 8.1 to 10.4 µM; on EGFR, less than 0.925 µM; on Lck it was 0.925 to 5.55 µM; on Fyn it was 0.925 to 5.55 µM. The IC50 at Hck-1 was greater than 10.4 µM; on AKT it was 8.1 to 10.4 µM; on IGFR-1, less than 0.925 µM.
Turning to `COc1cc(Nc2ncnc(Nc3cc(Cl)c(O)c(Cl)c3)n2)cc(OC)c1OC` [Compound 68], the IC50 on c-Met is 7.99 to 10.3 µM; on PDGFRB it was 0.913 to 5.48 µM; on Src, less than 0.913 µM; on ErbB4 it was greater than 10.3 µM; on EPHB4, 0.913 to 5.48 µM; against Lyn, less than 0.913 µM. Besides, the IC50 on Tek is greater than 10.3 µM; against Flt-1 it was less than 0.913 µM; at FGFR1, greater than 10.3 µM; at EGFR it was less than 0.913 µM; at Lck, less than 0.913 µM; on Fyn it was greater than 10.3 µM. Moreover, the IC50 at Hck-1 was greater than 10.3 µM; on AKT, greater than 10.3 µM; against IGFR-1 it was less than 0.913 µM.
`COc1cc(Nc2ncnc(Nc3ccc4cn[nH]c4c3)n2)cc(OC)c1OC` [Compound 70]: the IC50 is greater than 11.4 µM on c-Met; less than 1.02 µM on PDGFRB; less than 1.02 µM at Src; 1.02 to 6.1 µM on ErbB4; 1.02 to 6.1 µM on EPHB4; 1.02 to 6.1 µM at Lyn. Besides, the IC50 at Tek was greater than 11.4 µM; against Flt-1, less than 1.02 µM; at FGFR1, 1.02 to 6.1 µM; on EGFR, 1.02 to 6.1 µM; on Lck, 1.02 to 6.1 µM; at Fyn, greater than 11.4 µM. Moreover, the IC50 against Hck-1 was greater than 11.4 µM; at AKT, greater than 11.4 µM; on IGFR-1 it was 1.02 to 6.1 µM.
